#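 Grown in 96-well plates, cells were treated for 48 hours with each compound at five concentrations. Insufficient inhibition: endpoint recorded as highest concentration tested. At the GI50, growth is halved. TGI marks complete inhibition of growth.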
# What was measured:
# Assay in all cases: DTP human tumour cell line panel, 48 h
# 786-0 renal = system: 786-0 renal
# A498 renal = system: A498 renal
# A549 NSCLC = system: A549 NSCLC
# ACHN renal = system: ACHN renal
# BT-549 breast = system: BT-549 breast
# CAKI-1 renal = system: CAKI-1 renal
# CCRF-CEM leukemia = system: CCRF-CEM leukemia
# COLO 205 colon = system: COLO 205 colon
# DU-145 prostate = system: DU-145 prostate
# EKVX NSCLC = system: EKVX NSCLC
# HCT-116 colon = system: HCT-116 colon
# HCT-15 colon = system: HCT-15 colon
# HL-60(TB) leukemia = system: HL-60(TB) leukemia
# HOP-62 NSCLC = system: HOP-62 NSCLC
# HOP-92 NSCLC = system: HOP-92 NSCLC
# HS 578T breast = system: HS 578T breast
# HT29 colon = system: HT29 colon
# IGROV1 ovarian = system: IGROV1 ovarian
# K-562 leukemia = system: K-562 leukemia
# KM12 colon = system: KM12 colon
# LOX IMVI melanoma = system: LOX IMVI melanoma
# M14 melanoma = system: M14 melanoma
# MALME-3M melanoma = system: MALME-3M melanoma
# MCF7 breast = system: MCF7 breast
# MDA-MB-231 breast = system: MDA-MB-231 breast
# MDA-MB-435 = system: MDA-MB-435
# MOLT-4 leukemia = system: MOLT-4 leukemia
# NCI-H226 lung = system: NCI-H226 lung
# NCI-H23 lung = system: NCI-H23 lung
# NCI-H460 lung = system: NCI-H460 lung
# NCI-H522 lung = system: NCI-H522 lung
# NCI/ADR-RES ovarian = system: NCI/ADR-RES ovarian
# OVCAR-3 ovarian = system: OVCAR-3 ovarian
# OVCAR-4 ovarian = system: OVCAR-4 ovarian
# OVCAR-5 ovarian = system: OVCAR-5 ovarian
# OVCAR-8 ovarian = system: OVCAR-8 ovarian
# PC-3 prostate = system: PC-3 prostate
# RPMI-8226 leukemia = system: RPMI-8226 leukemia
# RXF 393 renal = system: RXF 393 renal
# SF-268 CNS = system: SF-268 CNS
# SF-295 CNS = system: SF-295 CNS
# SF-539 CNS = system: SF-539 CNS
# SK-MEL-2 melanoma = system: SK-MEL-2 melanoma
# SK-MEL-28 melanoma = system: SK-MEL-28 melanoma
# SK-MEL-5 melanoma = system: SK-MEL-5 melanoma
# SK-OV-3 ovarian = system: SK-OV-3 ovarian
# SN12C renal = system: SN12C renal
# SNB-19 CNS = system: SNB-19 CNS
# SNB-75 CNS = system: SNB-75 CNS
# SR leukemia = system: SR leukemia
# SW-620 colon = system: SW-620 colon
# T-47D breast = system: T-47D breast
# TK-10 renal = system: TK-10 renal
# U251 CNS = system: U251 CNS
# UACC-257 melanoma = system: UACC-257 melanoma
# UACC-62 melanoma = system: UACC-62 melanoma
# UO-31 renal = system: UO-31 renal
# HCC-2998 colon = system: HCC-2998 colon
structure (smiles),measurement,setting,value
O=C(c1ccc([N+](=O)[O-])cc1)C(Br)C(Br)c1ccnc2ccccc12 (centres undefined),TGI,786-0 renal,7.44 µM
same,TGI,A498 renal,25.7 µM
same,TGI,A549 NSCLC,30.5 µM
same,TGI,ACHN renal,17 µM
same,TGI,BT-549 breast,20 µM
same,TGI,CAKI-1 renal,24.6 µM
same,TGI,CCRF-CEM leukemia,2.11 µM
same,TGI,COLO 205 colon,28.9 µM
same,TGI,DU-145 prostate,24.4 µM
same,TGI,EKVX NSCLC,34.3 µM
same,TGI,HCT-116 colon,4.04 µM
same,TGI,HCT-15 colon,27.3 µM
same,TGI,HL-60(TB) leukemia,9.99 µM
same,TGI,HOP-62 NSCLC,29.7 µM
same,TGI,HOP-92 NSCLC,28.8 µM
same,TGI,HS 578T breast,> 27.2 µM
same,TGI,HT29 colon,11.7 µM
same,TGI,IGROV1 ovarian,30 µM
same,TGI,K-562 leukemia,> 33.3 µM
same,TGI,KM12 colon,5.13 µM
same,TGI,LOX IMVI melanoma,4.71 µM
same,TGI,M14 melanoma,9.81 µM
same,TGI,MALME-3M melanoma,25.4 µM
same,TGI,MCF7 breast,8.86 µM
same,TGI,MDA-MB-231 breast,27.8 µM
same,TGI,MDA-MB-435,7.85 µM
same,TGI,MOLT-4 leukemia,14.7 µM
same,TGI,NCI-H226 lung,33.6 µM
same,TGI,NCI-H23 lung,> 21.9 µM
same,TGI,NCI-H460 lung,13.8 µM
same,TGI,NCI-H522 lung,6.32 µM
same,TGI,NCI/ADR-RES ovarian,> 71.7 µM
same,TGI,OVCAR-3 ovarian,23.1 µM
same,TGI,OVCAR-4 ovarian,25.5 µM
same,TGI,OVCAR-5 ovarian,33 µM
same,TGI,OVCAR-8 ovarian,42.3 µM
same,TGI,PC-3 prostate,21.1 µM
same,TGI,RPMI-8226 leukemia,5.91 µM
same,TGI,RXF 393 renal,21.2 µM
same,TGI,SF-268 CNS,45.2 µM
same,TGI,SF-295 CNS,21.1 µM
same,TGI,SF-539 CNS,15.3 µM
same,TGI,SK-MEL-2 melanoma,26.4 µM
same,TGI,SK-MEL-28 melanoma,30.8 µM
same,TGI,SK-MEL-5 melanoma,20 µM
same,TGI,SK-OV-3 ovarian,32.1 µM
same,TGI,SN12C renal,14.4 µM
same,TGI,SNB-19 CNS,30.8 µM
same,TGI,SNB-75 CNS,13.1 µM
same,TGI,SR leukemia,5.69 µM
same,TGI,SW-620 colon,5.61 µM
same,TGI,T-47D breast,> 56.6 µM
same,TGI,TK-10 renal,12.6 µM
same,TGI,U251 CNS,4.13 µM
same,TGI,UACC-257 melanoma,14.6 µM
same,TGI,UACC-62 melanoma,24.6 µM
same,TGI,UO-31 renal,3.58 µM
O=C(Nc1cc(Cl)ccc1O)c1cccc(Nc2ccnc(C(F)(F)F)c2)c1,GI50,786-0 renal,3.56 µM
same,TGI,786-0 renal,19.3 µM
same,GI50,A498 renal,3.28 µM
same,TGI,A498 renal,13.4 µM
same,GI50,A549 NSCLC,2.94 µM
same,TGI,A549 NSCLC,66 µM
same,GI50,ACHN renal,2.13 µM
same,TGI,ACHN renal,81.2 µM
same,GI50,BT-549 breast,2.18 µM
same,TGI,BT-549 breast,12.6 µM
same,GI50,CAKI-1 renal,2.61 µM
same,TGI,CAKI-1 renal,12.7 µM
same,GI50,CCRF-CEM leukemia,1.93 µM
same,TGI,CCRF-CEM leukemia,6.8 µM
same,GI50,COLO 205 colon,3.18 µM
same,TGI,COLO 205 colon,15 µM
same,GI50,DU-145 prostate,5.22 µM
same,TGI,DU-145 prostate,22.6 µM
same,GI50,EKVX NSCLC,2.43 µM
same,TGI,EKVX NSCLC,10.7 µM
same,GI50,HCC-2998 colon,5.01 µM
same,TGI,HCC-2998 colon,17.1 µM
same,GI50,HCT-116 colon,2.22 µM
same,TGI,HCT-116 colon,17.6 µM
same,GI50,HCT-15 colon,2.61 µM
same,TGI,HCT-15 colon,42.1 µM
same,GI50,HL-60(TB) leukemia,0.935 µM
same,TGI,HL-60(TB) leukemia,4.03 µM
same,GI50,HOP-62 NSCLC,4.4 µM
same,TGI,HOP-62 NSCLC,23.5 µM
same,GI50,HOP-92 NSCLC,2.27 µM
same,TGI,HOP-92 NSCLC,10.9 µM
same,GI50,HS 578T breast,8.27 µM
same,TGI,HS 578T breast,41.2 µM
same,GI50,HT29 colon,11.1 µM
same,TGI,HT29 colon,31.8 µM
same,GI50,IGROV1 ovarian,7.47 µM
same,TGI,IGROV1 ovarian,33.9 µM
same,GI50,K-562 leukemia,0.713 µM
same,TGI,K-562 leukemia,12.4 µM
same,GI50,KM12 colon,3.68 µM
same,TGI,KM12 colon,14.4 µM
same,GI50,LOX IMVI melanoma,2.65 µM
same,TGI,LOX IMVI melanoma,24.4 µM
same,GI50,M14 melanoma,3.85 µM
same,TGI,M14 melanoma,18.3 µM
same,GI50,MALME-3M melanoma,2.22 µM
same,TGI,MALME-3M melanoma,11.2 µM
same,GI50,MCF7 breast,2 µM
same,TGI,MCF7 breast,17.9 µM
same,GI50,MDA-MB-231 breast,2.63 µM
same,TGI,MDA-MB-231 breast,26.7 µM
same,GI50,MDA-MB-435,2.83 µM
same,TGI,MDA-MB-435,12.2 µM
same,GI50,MOLT-4 leukemia,1.54 µM
same,TGI,MOLT-4 leukemia,4.73 µM
same,GI50,NCI-H226 lung,4.84 µM
same,TGI,NCI-H226 lung,39.5 µM
same,GI50,NCI-H23 lung,0.771 µM
same,TGI,NCI-H23 lung,7.74 µM
same,GI50,NCI-H460 lung,1.95 µM
same,TGI,NCI-H460 lung,13.2 µM
same,GI50,NCI/ADR-RES ovarian,2.67 µM
same,TGI,NCI/ADR-RES ovarian,14.1 µM
same,GI50,OVCAR-3 ovarian,2.73 µM
same,TGI,OVCAR-3 ovarian,10.4 µM
same,GI50,OVCAR-4 ovarian,2.32 µM
same,TGI,OVCAR-4 ovarian,17.4 µM
same,GI50,OVCAR-5 ovarian,13.9 µM
same,TGI,OVCAR-5 ovarian,38.5 µM
same,GI50,OVCAR-8 ovarian,3.77 µM
same,TGI,OVCAR-8 ovarian,32.1 µM
same,GI50,PC-3 prostate,2.29 µM
same,TGI,PC-3 prostate,11.6 µM
same,GI50,RPMI-8226 leukemia,0.822 µM
same,TGI,RPMI-8226 leukemia,4.04 µM
same,GI50,RXF 393 renal,11 µM
same,TGI,RXF 393 renal,29.1 µM
same,GI50,SF-268 CNS,7.35 µM
same,TGI,SF-268 CNS,22.8 µM
same,GI50,SF-295 CNS,2.38 µM
same,TGI,SF-295 CNS,11.1 µM
same,GI50,SF-539 CNS,2.07 µM
same,TGI,SF-539 CNS,15 µM
same,GI50,SK-MEL-28 melanoma,6.15 µM
same,TGI,SK-MEL-28 melanoma,19.1 µM
same,GI50,SK-MEL-5 melanoma,1.3 µM
same,TGI,SK-MEL-5 melanoma,3.83 µM
same,GI50,SK-OV-3 ovarian,3.3 µM
same,TGI,SK-OV-3 ovarian,25.3 µM
same,GI50,SN12C renal,3.36 µM
same,TGI,SN12C renal,25.5 µM
same,GI50,SNB-19 CNS,2.42 µM
same,TGI,SNB-19 CNS,13.8 µM
same,GI50,SNB-75 CNS,6.27 µM
same,TGI,SNB-75 CNS,22.2 µM
same,GI50,SR leukemia,0.811 µM
same,TGI,SR leukemia,15.2 µM
same,GI50,SW-620 colon,4.32 µM
same,TGI,SW-620 colon,18.5 µM
same,GI50,T-47D breast,1.02 µM
same,TGI,T-47D breast,7.51 µM
same,GI50,TK-10 renal,4.51 µM
same,TGI,TK-10 renal,19.8 µM
same,GI50,U251 CNS,3.05 µM
same,TGI,U251 CNS,83.4 µM
same,GI50,UACC-257 melanoma,4.63 µM
same,TGI,UACC-257 melanoma,16.7 µM
same,GI50,UACC-62 melanoma,0.901 µM
same,TGI,UACC-62 melanoma,11.9 µM
same,GI50,UO-31 renal,2.3 µM
same,TGI,UO-31 renal,11.3 µM
